According to PMC10606834, “Is the Neuropeptide PEN a Ligand of GPR83?” (International Journal of Molecular Sciences, 2023):
Entries after “also recorded” stand apart in the source; their conditions may differ.

Key:
[1] = tested on: GPR83 and deletion variant GPR83del (untagged or HA-tagged, U2OS clones); assay: Intracellular calcium mobilization, U2OS cells; type: cell-based, human; conditions: 10 µM PEN, controls co mix or 50 µM ionomycin, traces over 60 s, ligand added 10 s after start of recording, Fluo4-AM, duplicate, repeated at least two times
Description: As activation of many GPCRs is coupled to calcium mobilization from intracellular stores, GPR83 was probed for ligand-dependent calcium release. Wild-type HEK293 cells and HEK293 clones overexpressing either full-length GPR83 or the N-terminal deletion variant GPR83del were exposed to buffer or one of two independent synthesis batches (PEN #1 and PEN #2) of the neuropeptide PEN, while calcium indicator fluorescence was recorded. […] Calcium release was also tested in a second cell line, osteosarcoma U2OS cells, using various stably expressing clones. […] Therefore, HEK293 cells transfected with Gα16 were employed to investigate a potential GPR83-dependent calcium mobilization with PEN. […] A number of GPCRs show ligand-independent basal calcium activity. […]
Figure 2 Investigation of ligand-dependent and ligand-independent intracellular calcium mobilization. […] (B) Calcium indicator fluorescence intensity traces over 60 s of various U2OS cell clones overexpressing untagged or HA-tagged GPR83 or the deletion variant GPR83del before and after the addition of buffer or ligand (co mix as in (A) or 50 µM ionomycin or 10 µM PEN). […]
Cells were seeded at 50,000 cells/well in a poly-D-lysine coated 96-well black well/clear bottom plate (BD Falcon, Franklin Lakes, NJ, USA) and cultured overnight. […] Fluorescence data were generated in duplicate, and experiments were repeated at least two times.

[2] = tested on: ERK1/2 phosphorylation in wild-type HEK293 cells; assay: ERK1/2 phosphorylation (immunoblot), wild-type cells; type: cell-based, human; conditions: 10 µM PEN #1, 15 min, n = 2
Text: (§1) Apart from G protein-mediated second messenger signaling via Ca^2+ and cAMP, GPCR stimulation may also lead to activation of β-arrestin and phosphorylation of extracellular signal-regulated kinases 1/2 (ERK1/2). Immunoblot analysis was employed to investigate ligand-dependent phosphorylation of ERK1/2 in HEK293 cells overexpressing GPR83 or the deletion variant GPR83del as well as in wild-type HEK293 cells.
(§2) Figure 4 Ligand-dependent phosphorylation of ERK1/2 and β-arrestin (TANGO) assay. (A) Immunoblot detection of phosphorylated (upper blot) and total (lower blot) ERK1/2 in lysates of HEK293 wild-type cells and in HEK293 cells overexpressing GPR83 or GPR83del. (B) Quantification (mean ± SD of n = 2 independent experiments) of chemiluminescent readout of the immunoblots shown in (A). (C) TANGO assay for ligand-induced β-arrestin activity in HTLA cells overexpressing GPR83 (relative light units, RLU). (D) TANGO assay for ligand-induced β-arrestin activity in HTLA cells overexpressing bradykinin receptor BDKBR2.
(§3) 4.7. ERK1/2 Phosphorylation Assay
Effects of GPCR ligands on MAPK signaling were assessed with Western blot analysis of lysates from stimulated cells. The ERK1/2 activation assay was performed as described before. […] Blots were analyzed using densitometric quantification using Image Lab Software v4.1 (Bio-Rad).

GPR83 = conditions: cited from earlier work
Text: G protein-coupled receptor 83 (GPR83), also termed glucocorticoid-induced receptor (GIR), GPR72, KIAA1540, or JP05, is a class A G protein-coupled receptor with predominant expression in the […] and proposed function in the regulation of food intake and in anxiety-like behavior [1, 2, 3]. […] A potential role of GPR83 in regulatory T cell development and function has not been confirmed. […] The present study was initiated to evaluate PEN as a ligand of GPR83. […] While one end of the peptide may be crucial for binding the receptor, an absolute requirement of both peptide termini to be free of another ...

[3] = tested on: GPR83 and GPR83del with Gα16 (HEK293); assay: Intracellular calcium mobilization, Gα16-transfected HEK293 cells; type: cell-based, human; conditions: 10 µM PEN, 100 µM carbachol, 100 µM ATP, Fluo4-AM fluorescence, duplicate, repeated at least two times
Description: As activation of many GPCRs is coupled to calcium mobilization from intracellular stores, GPR83 was probed for ligand-dependent calcium release. Wild-type HEK293 cells and HEK293 clones overexpressing either full-length GPR83 or the N-terminal deletion variant GPR83del were exposed to buffer or one of two independent synthesis batches (PEN #1 and PEN #2) of the neuropeptide PEN, while calcium indicator fluorescence was recorded. […] Calcium release was also tested in a second cell line, osteosarcoma U2OS cells, using various stably expressing clones. […] Therefore, HEK293 cells transfected with Gα16 were employed to investigate a potential GPR83-dependent calcium mobilization with PEN. […] A number of GPCRs show ligand-independent basal calcium activity. However, in an experiment comparing basal calcium levels in wild-type HEK293 cells and in HEK293 clones overexpressing four different variants of GPR83, they were not found to be different (Figure 2D).
Figure 2 Investigation of ligand-dependent and ligand-independent intracellular calcium mobilization. (A) Wild-type HEK293 cells and HEK293 cell clones overexpressing either GPR83 or the deletion variant GPR83del were incubated with either buffer or the specified ligand (10 µM PEN or co mix = 100 µM carbachol, 100 µM ATP, 40 µM dimaprit, or 50 µM ionomycin). (B) Calcium indicator fluorescence intensity traces over 60 s of various U2OS cell clones overexpressing untagged or HA-tagged GPR83 or the deletion variant GPR83del before and after the addition of buffer or ligand (co mix as in (A) or 50 µM ionomycin or 10 µM PEN). […]
Cells were seeded at 50,000 cells/well in a poly-D-lysine coated 96-well black well/clear bottom plate (BD Falcon, Franklin Lakes, NJ, USA) and cultured overnight. […] Fluorescence was recorded with the fluorescence imaging plate reader CellLux (Perkin Elmer, Waltham, MA, USA) simultaneously in all wells at an excitation wavelength of 488 nm and emission wavelength of 510 nm in 1.5 s intervals over a period of 4 min. Fluorescence data were generated in duplicate, and experiments were repeated at least two times.

[4] = tested on: ERK1/2 phosphorylation in HEK293 cells overexpressing GPR83 or GPR83del; assay: ERK1/2 phosphorylation (immunoblot), GPR83 cells; type: cell-based, human
Text: as §1, §2, §3
Effects of GPCR ligands on MAPK signaling were assessed with Western blot analysis of lysates from stimulated cells. The ERK1/2 activation assay was performed as described before. Briefly, 50,000 cells per well were seeded onto adherent 6-well plates and cultured until cells were 80% confluent. After incubation with ligands (10 µM PEN #1 and 100 ng/mL EGF or 200 nM PMA in 0.1% FCS/DMEM) for 15 min, cells were lysed using 200 µL/well cell lysis buffer (100 mM Tris-HCl pH 8.8, 1% SDS) and protease inhibitors (cOmplete, Roche, Basel, Switzerland) on ice for one hour. Immunolabeling was realized using the rabbit monoclonal primary antibody anti-phospho-ERK1/2 Thr^202/Tyr^204 (#4370, Cell Signaling Technologies, Danvers, MA, USA, 1:2000), or anti-total ERK1/2 (#05-1152; Millipore, Burlington, VT, USA; 1:2000), respectively. Blots were analyzed using densitometric quantification using Image Lab Software v4.1 (Bio-Rad).

AADHDVGSELPPEGVLGALLRV [PEN, batch #1 synthesized, batch #2 purchased from Phoenix Pharmaceuticals]
enhancement of calcium indicator fluorescence [1]: PEN did not
phosphorylation of ERK1/2, wild-type HEK293 versus GPR83 or GPR83del cells [2]: equally strong ERK1/2 phosphorylation in wild-type HEK293 cells as well as in HEK293 cells overexpressing GPR83 or GPR83del; also recorded: also demonstrated a similar phosphorylation after incubation with PEN
ligand for GPR83 (GPR83; 2016 proposal, ref [10]): serves as a distinct ligand for GPR83
GPR83 ligand and agonist (GPR83; comparative evaluation, multiple assay systems, ref [16]): not PEN
activation of GPR83 (GPR83; independent reports from two other labs, ref [12],[13]): supported activation of GPR83 by PEN
calcium signal [3]: PEN did not
phosphorylation of ERK1/2 ([4]; 10 µM PEN #1, 100 ng/mL EGF or 200 nM PMA, 15 min, HEK293 overexpressing GPR83 or GPR83del as well as wild-type HEK293, n = 2 independent experiments): substantially induced phosphorylation of ERK1/2
phosphorylation of ERK1/2, GPR83 or GPR83del cells versus wild-type ([4]; 10 µM PEN #1, 15 min, n = 2): equally strong ERK1/2 phosphorylation in wild-type HEK293 cells as well as in HEK293 cells overexpressing GPR83 or GPR83del
